Assay results: patent publication US10765763B2, “Radioligands for myelin” (CASE WESTERN RESERVE UNIVERSITY, priority 2016, dated 2020)
“Also recorded” adds a separate entry of the source.

Experiments:
myelin [1] = test: In vitro detection of focal demyelination in LPC rat model; type: binding; details: in vitro tissue staining
Method: Sprague-Dawley female rats (220-250 g, 8 weeks old) were anesthetized and positioned in a stereotaxic frame (Stoelting). A small incision was made in the scalp, and the corpus callosum was targeted using the following stereotaxic coordinates, relative to bregma: anterior-posterior, 0.0 mm; medial-lateral, 2.0 mm; and dorsal-ventral, 3.4 mm A small hole was drilled in the skull, and a 26S-gauge needle attached to a 10 μL Hamilton Syringe was lowered into the corpus callosum according to the dorsal-ventral coordinate. A microinjector pump (Stoelting) controlled the infusion of 6 μL of lysolecithin (LPC, 0.1% in saline) at a rate of 0.25 μL/min, after which the needle was left in place for 2 min in order to prevent liquid reflux out of the brain parenchyma. The incision was then closed using 5-0 Ethicon sutures, and the animals were allowed to recover on a heating pad. After 5-7 days, the animals were ready for study.
Five days after surgery, the rats were anesthetized and perfused with saline followed by 4% PFA. […] Sections were then examined under a microscope (Leica DM4000B, Leica Microsystem Inc., Buffalo Grove, Ill., USA) equipped for fluorescence (DFC7000T), and images of the stained mouse whole brain sections were acquired with the same exposure time. […]

myelin [2] = test: In situ histological staining of SCI (T13) spinal cord after microPET/CT; type: in vivo, rat; details: SCI rats, 60 min after tail vein injection
Method: After microPET imaging studies, the rats were administered compound 21 (3-5 mg) via tail vein injection, and 60 min later the rats were perfused transcardially with saline followed by 4% PFA in PBS. Spinal cords were then removed, postfixed by immersion in 4% PFA overnight, dehydrated in 30% sucrose solution, cryostat sectioned at 100 μm, mounted consecutively on superfrost slides, and images were sequentially acquired directly using a Leica fluorescent microscope to give a series of 2D microscopic images along the length of the spinal cord. Slices were aligned sequentially using a semiautomated image registration algorithm. Starting from the first slice image, the current slice was used as the reference image for alignment and the next slice was the floating image. The floating image was aligned via control point pairs between corresponding anatomic features in the two images. A 2D rigid-body transformation (translation, rotation) was used to transform the floating image to align with the reference and a minimum of three control point pairs were used for the transformation. […] All slices in the sequence were aligned by this technique, giving a 3D reconstructed fluorescence image volume. Image volumes from fluorescence, PET, and CT were visualized in Amira using volume rendering and aligned based on the shape of the spine and fiducials from the vertebrae. […]

myelin [3] = test: In situ staining of compound 21 in wild-type mice; type: in vivo, mouse; details: WT mice, 1.0 mg (50 mg/kg) tail vein, 1 h
Method: Wild-type mice were administered the newly synthesized compounds (40 mg/kg) via tail vein injection, and 30-60 min later the mice were perfused transcardially with saline followed by 4% PFA in PBS. Brains and spinal cords were then removed, postfixed by immersion in 4% PFA overnight, dehydrated in 30% sucrose solution, cryostat sectioned at 100 μm, mounted on superfrost slides, and images were acquired directly using a Leica fluorescent microscope.
Following the in vitro studies, we then investigated the ability of compound 21 to readily enter the brain and bind to myelin in situ. A dose of 1.0 mg of compound 21 (50 mg/kg) was administered via the tail vein to wild-type (WT) mice. One hour after injection, the mice were perfused with saline followed by 4% paraformaldehyde (PFA) and the brain and spinal cord were removed and sectioned. The distribution of compound 21 was then directly examined under a fluorescent microscope.

myelin [4] = test: Quantitative microPET/CT imaging of spinal cord in rat SCI model; type: in vivo; details: for uptake in T13: normalized to average spine uptake
Method: Sprague-Dawley female rats (220-250 g, 8 weeks old) were anesthetized and a restricted laminectomy was conducted to expose the dorsal surface of T13. The vertebral column between T12 and L1 was then stabilized with clamps and forceps fixed to the base of an Infinite Horizon impact device. The midpoint of T13 was impacted with a force of 250 kDyn using a 2.5 mm stainless steel impactor tip, which was used to induce a moderately severe contusive injury to the spinal cord. The musculature was then sutured over the laminectomy site and the skin closed with wound clips followed by subsequent treatment with Marcaine at the incision site. The force/displacement graph was used to monitor impact consistency. After surgery, the animals were carefully monitored daily for pain and body weight with manual bladder expression 2-3 times daily to stimulate reflex voiding until the animals could urinate independently.
(§1) For better anatomic localization, CT co-registration was applied.
So far, imaging of the spinal cord remains a great challenge. […] Next, we asked whether [18F]21 PET is capable of in vivo imaging of myelin deficiency or myelin damage in living animal models. We conducted [^18F]21-PET imaging in a rat model of thoracic contusive SCI. In this model, the contusion was made at T13 to introduce demyelination. In vivo [^18F]21 PET imaging was performed before (as a baseline scan) and 1 day after contusion. The uptake of [^18F]21 in every spine segment was then normalized to the average spine uptake. […] After microPET/CT imaging, we conducted in situ histological staining of the spinal cord 60 min after injection of nonlabeled compound 21 through the tail vein.

myelin [5] = test: Quantitative microPET/CT imaging in Shiverer and WT mice; type: in vivo, mouse; details: microPET
Method: as §1
To further evaluate the in vivo binding specificity of [^18F]21, we investigated the pharmacokinetic profiles of [^18F]21 in a Shiverer mouse model that is deficient in myelin in the brain. Thus, the pharmacokinetic profiles of [^18F]21 were quantitatively compared between Shiverer mice (C3Fe.SWV-Mbpshi/J, n=2) and age-matched WT mice (CB57J, n=2).
Dynamic emission scans were acquired for 60 min in 3D list mode immediately after [^18F]21 (0.3 mCi each mouse, 11.1 MBq) was administered. The brain uptake of [^18F]21 was lower in the Shiverer brain than in the WT littermates (1.25 vs 1.64). After the brain concentration of [^18F]21 reached a plateau, the SUVs from 40 to 60 min were summarized and compared.

[6] = Quantitative microPET/CT imaging in WT rats, Example 2; type: in vivo, rat
Method: as §1
Following radiosynthesis, the pharmacokinetic profile of [^18F]21 was fully characterized by quantitative microPET/CT imaging in WT rats (n=3). […] The brain radioactivity peaked at 3 min postinjection followed by rapid clearance before reaching a plateau at 40-60 min postinjection.

myelin [7] = test: In situ autoradiography of [18F]21 in mouse brain; type: in vivo; details: coronal, after tail vein injection
Method: Wild-type mice were euthanized at 30 min post iv injection of [^18F]21 (111 MBq, 3.0 mCi). The brains were rapidly removed, placed in OCT embedding medium, and frozen at −20° C. After reaching equilibrium at this temperature, the brains were coronally sectioned at 60 μm on a cryostat and mounted on superfrost slides. After drying by air at room temperature, the slides were put in a cassette and exposed for 20 min to film to obtain images.
To validate the PET results and confirm that the PET signals were indeed from specific binding to myelin, we conducted ex vivo autoradiography in the mouse brain following administration of [^18F]21 through tail vein injections. After 1 h, the mouse brain was dissected for coronal tissue sectioning. […] Thus, combination of in situ autoradiography and PET imaging confirmed that [^18F]21 binds specifically to myelin in vivo.

Compound	detection of demyelinated lesion by fluorescent staining (myelin [1])	in situ histological staining of SCI (T13) tissue section (myelin [2])	brain/spinal cord entry and in situ myelin staining (myelin [3])	uptake in L1 (myelin [4]; 1 day post-T13 contusion)	uptake in T12 (myelin [4]; 1 day post-T13 contusion)	uptake in T13 (myelin [4]; SCI group, 1 day post-T13 contusion)	uptake in T13 (myelin [4]; baseline scan before contusion)	uptake in L1 (myelin [4]; before contusion)	uptake in T12 (myelin [4]; before contusion)	brain uptake (myelin [5]; Shiverer mouse brain)	brain uptake (myelin [5]; WT littermates)	brain uptake ([6]; WT rats (n=3), microPET/CT)	time constant of clearance ([6]; WT rats, calculated from fitted time-radioactivity curve) [min]	time of peak brain radioactivity ([6]; WT rats, postinjection) [min]	time of plateau of brain radioactivity ([6]; WT rats, postinjection) [min]	autoradiographic labeling (myelin [7])
CNc1ccc(/C=C/c2ccc(NCc3cn(CCF)nn3)cc2)cc1 [Compound 21, (E)-N-((1-(2-Fluoroethyl)-1H-1,2,3-triazol-4-yl)methyl)-4-(4-(methylamino)styryl)aniline]	capable of detecting the demyelinated focal lesion by fluorescent staining; also recorded: can be used to detect demyelinated lesion	showed that a demyelinated lesion was present at the dorsal column	readily entered the brain and spinal cord and localized in all the myelinated regions in proportion to the myelin content; also recorded: crosses the BBB and stains myelinated areas of the mouse brain	–	–	–	–	–	–	–	–	–	–	–	–	–
CNc1ccc(/C=C/c2ccc(NCc3cn(CC[18F])nn3)cc2)cc1 [[^18F]21]	–	–	–	1.08	0.99	0.81	1.02	1.05	0.99	1.25	1.64	high uptake in the brain	19.45	3	40 to 60	distinctly labeled the corpus callosum
